The record followed here is ChEMBL document CHEMBL1201862, “PubChem BioAssay data set” (2004).

Test systems include UACC-62; NCI-H23; UO-31; SN12C; IGROV-1; HT-29; OVCAR-4; MOLT-4; KM-20L2; COLO 205; SF-539; HCT-15; CAKI-1; NCI/ADR-RES; T47D; Hs-578T; MDA-N; BT-549; PC-3; DU-145.
What all share (assay): NCI anticancer screen, dose series, 48 h

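Where inhibition never reached the appropriate level, the endpoint shown equals the highest concentration tested. Otherwise, values were interpolated linearly from a five-concentration, 48-hour dose response in 96-well plates. GI50 is the concentration that inhibits growth by half.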 Activity calls are given as the source filed them. Cut-off read from the data, not from the text of the source: active = GI50 up to about 1.1 µM and inactive = higher.

Turning to `NC(=S)N/N=C(/CC(=O)c1ccc([N+](=O)[O-])cc1)C(=O)Nc1ncc([N+](=O)[O-])s1`, the GI50 was 52.7 µM (inactive) with UACC-62; > 100 µM (inactive) in the experiment with NCI-H23; > 100 µM (inactive) in the experiment on UO-31; > 100 µM (inactive) in the experiment with SN12C; > 100 µM (inactive) with IGROV-1; > 100 µM (inactive) in the experiment with HT-29. In addition, the GI50 is > 100 µM (inactive) in the experiment with OVCAR-4, 30.7 µM (inactive) in the experiment with MOLT-4, > 100 µM (inactive) in the experiment with KM-20L2 and > 100 µM (inactive) in the experiment with COLO 205.

On to `C[P+]1(Cc2ccccc2)CCCC1`, for which the GI50 in the experiment on UACC-62, with NCI-H23, with UO-31, in the experiment with SN12C, in the experiment on IGROV-1 and in the experiment with HT-29 was > 100 µM (inactive) throughout. For the same compound, the GI50 in the experiment with SF-539 was > 100 µM (inactive); in the experiment on MOLT-4, > 100 µM (inactive); with KM-20L2 it was > 100 µM (inactive); in the experiment with HCT-15 it was > 100 µM; with COLO 205, > 100 µM (inactive).

Turning to `CCOc1ccc(/N=N/c2c(-c3ccccc3)nn(C(=O)CC(=O)Nc3cccc(C)c3)c2-c2ccccc2)cc1`, the GI50 in the experiment with UACC-62 was > 100 µM (inactive); with NCI-H23, > 100 µM (inactive); with UO-31, 17.7 µM (inactive); in the experiment on SN12C, > 100 µM (inactive); in the experiment on IGROV-1 it was > 100 µM (inactive); with HT-29 it was 22 µM (inactive). The GI50 in the experiment with OVCAR-4 is > 100 µM (inactive); in the experiment on SF-539, 76.2 µM (inactive); in the experiment on MOLT-4 it was > 100 µM (inactive); with KM-20L2 it was 85.5 µM (inactive); in the experiment on COLO 205, > 100 µM (inactive); with CAKI-1, > 100 µM (inactive).

As for `COc1ccccc1NC(=O)CC(=O)n1nc(-c2ccccc2)c(/N=N/c2ccccc2[N+](=O)[O-])c1-c1ccccc1`, the GI50 was > 100 µM (inactive) in the experiment on UACC-62; 98.4 µM (inactive) with NCI-H23; 38.4 µM (inactive) in the experiment with UO-31; > 100 µM (inactive) with SN12C; > 100 µM (inactive) in the experiment on IGROV-1; 25.2 µM (inactive) in the experiment with HT-29. For the same compound, the GI50 in the experiment with OVCAR-4 is > 100 µM (inactive); in the experiment on SF-539, > 100 µM (inactive); in the experiment on MOLT-4 it was 64.7 µM (inactive); with KM-20L2, > 100 µM (inactive); in the experiment with COLO 205 it was 95.5 µM (inactive); in the experiment with CAKI-1, > 100 µM (inactive).

Take `CC1=C(C(=O)Nc2ccc([N+](=O)[O-])cc2)C(c2ccco2)C(C(=O)Nc2ccc([N+](=O)[O-])cc2)=C(C)N1`: the GI50 with NCI-H23 is 13.4 µM (inactive); in the experiment on UO-31, 7.24 µM (inactive); in the experiment with SN12C it was 16.3 µM (inactive); in the experiment on IGROV-1 it was 14.9 µM (inactive); with HT-29, 25.8 µM (inactive); in the experiment with OVCAR-4, 3.88 µM (inactive). Moreover, the GI50 was 16.5 µM (inactive) with SF-539; 4.33 µM (inactive) with MOLT-4; 17.4 µM (inactive) with KM-20L2; 15.8 µM (inactive) in the experiment on COLO 205; 20.3 µM (inactive) in the experiment on CAKI-1.

Consider `C1CCN(c2nsc(N3CCCCC3)n2)CC1`, for which the GI50 with UACC-62, in the experiment with NCI-H23, in the experiment on UO-31, in the experiment on SN12C, in the experiment on IGROV-1 and in the experiment on HT-29 was > 100 µM (inactive) throughout. The GI50 with OVCAR-4 is > 100 µM (inactive); with SF-539, > 100 µM (inactive); with MOLT-4, > 100 µM (inactive); with KM-20L2 it was > 100 µM (inactive); in the experiment on HCT-15, > 100 µM; in the experiment on CAKI-1 it was > 100 µM (inactive).

In the case of `Cc1ccc(S(=O)(=O)n2ccn3c(=O)cc(C)nc23)cc1`, the GI50 with UACC-62 is > 10 µM (inactive); in the experiment with NCI/ADR-RES, > 10 µM (inactive); with NCI-H23, > 10 µM (inactive); in the experiment with T47D, > 10 µM (inactive); in the experiment on Hs-578T, 8.59 µM (inactive); with UO-31, > 10 µM (inactive). In addition, the GI50 in the experiment with SN12C, in the experiment on MDA-N, in the experiment on IGROV-1, with HT-29, in the experiment on BT-549 and in the experiment on OVCAR-4 was > 10 µM (inactive) each time. For the same compound, the GI50 is > 10 µM (inactive) with SF-539; > 10 µM (inactive) with PC-3; > 10 µM (inactive) with MOLT-4; > 10 µM (inactive) with DU-145; > 10 µM with HCT-15; > 10 µM (inactive) in the experiment on COLO 205. Moreover, in the experiment with CAKI-1, the GI50 was > 10 µM (inactive).

Turning to `O=C(O)C1CCCN1C(=O)c1cc(Cl)ccn1` (stereo unspecified), the GI50 in the experiment on UACC-62, in the experiment with NCI/ADR-RES, in the experiment on NCI-H23, in the experiment on T47D, with Hs-578T and in the experiment on UO-31 was > 100 µM (inactive) each time. Moreover, the GI50 in the experiment on SN12C, with MDA-N, in the experiment on IGROV-1, with HT-29, in the experiment with BT-549 and with OVCAR-4 was > 100 µM (inactive) each time. Also, the GI50 with SF-539 was > 100 µM (inactive); with PC-3, > 100 µM (inactive); with MOLT-4, > 100 µM (inactive); in the experiment with DU-145, > 100 µM (inactive); in the experiment with HCT-15, > 100 µM; in the experiment with COLO 205 it was > 100 µM (inactive). Besides, in the experiment on CAKI-1, the GI50 was > 100 µM (inactive).

Take `Cn1c2c(c3ccccc31)C1C(=O)N(c3ccccc3)C(=O)C1CC2` (stereo unspecified): the GI50 in the experiment with UACC-62, with NCI-H23, in the experiment with SN12C, in the experiment with IGROV-1, in the experiment with HT-29 and with SF-539 was > 303 µM (inactive) each time. Also, the GI50 is > 303 µM (inactive) in the experiment with MOLT-4; > 303 µM (inactive) with KM-20L2; > 303 µM in the experiment with HCT-15; > 303 µM (inactive) in the experiment with COLO 205; > 303 µM (inactive) with CAKI-1.

With `COc1ccc(C2C(Cl)C(=O)N2NC(=O)Cc2ccccc2)cc1` (stereo unspecified), the GI50 with UACC-62, in the experiment on NCI-H23, with UO-31, with SN12C, in the experiment on IGROV-1 and in the experiment on HT-29 was > 100 µM (inactive) each time. Moreover, the GI50 was > 100 µM (inactive) with OVCAR-4; > 100 µM (inactive) in the experiment on MOLT-4; > 100 µM (inactive) with KM-20L2; > 100 µM in the experiment with HCT-15; > 100 µM (inactive) in the experiment on COLO 205; > 100 µM (inactive) in the experiment with CAKI-1.

For the compound `COc1ccc(/C=C(\Cl)c2ccc(OC)cc2)cc1`, the GI50 was 38.8 µM (inactive) with UACC-62; > 100 µM (inactive) in the experiment on NCI-H23; > 100 µM (inactive) in the experiment on UO-31; > 100 µM (inactive) in the experiment on SN12C; > 100 µM (inactive) in the experiment on OVCAR-4; > 100 µM (inactive) with SF-539. Moreover, the GI50 with MOLT-4, in the experiment with KM-20L2, in the experiment on COLO 205 and with CAKI-1 was > 100 µM (inactive) each time.

As for `CC(=O)C1C(=O)NC(=O)C1=O` (stereo unspecified), the GI50 in the experiment with UACC-62, in the experiment on NCI-H23, in the experiment with UO-31, in the experiment on SN12C, with IGROV-1 and in the experiment with HT-29 was > 100 µM (inactive) in each case. The GI50 in the experiment with OVCAR-4 was > 100 µM (inactive); in the experiment with SF-539, > 100 µM (inactive); in the experiment on KM-20L2, > 100 µM (inactive); in the experiment with HCT-15 it was > 100 µM; with COLO 205 it was > 100 µM (inactive); with CAKI-1, > 100 µM (inactive).

Turning to `CC1=C[C@H]2C[C@@]3(C)O[C@@H]([C@]4(C)CC[C@H]([C@@H](C)C(=O)O)OO4)CC3C(C)(C)[C@H]2CC1` (stereo partly specified), the GI50 is 1.91 µM (inactive) in the experiment on NCI-H23; 1.2 µM (inactive) in the experiment on UO-31; 1.39 µM (inactive) in the experiment on SN12C; 0.479 µM (active) in the experiment on HT-29; 1.5 µM (inactive) in the experiment with OVCAR-4; 1.94 µM (inactive) in the experiment with SF-539. For the same compound, the results for the GI50 in the experiment on KM-20L2, with COLO 205 and in the experiment on CAKI-1 were 2.17 µM (inactive), 1.44 µM (inactive) and 1.49 µM (inactive), respectively.

With `CC(=O)Nc1ccc2c(c1)nc1c3ccccc3ccn21`, the GI50 is > 100 µM (inactive) in the experiment on UACC-62; > 100 µM (inactive) with NCI/ADR-RES; > 100 µM (inactive) with NCI-H23; > 100 µM (inactive) with T47D; > 100 µM (inactive) in the experiment with Hs-578T; 90.4 µM (inactive) in the experiment with UO-31. Also, the GI50 with SN12C, in the experiment on MDA-N, in the experiment with IGROV-1, in the experiment on HT-29, in the experiment with BT-549 and with OVCAR-4 was > 100 µM (inactive) throughout. Also, the GI50 with SF-539 is > 100 µM (inactive); with PC-3, > 100 µM (inactive); with MOLT-4, > 100 µM (inactive); in the experiment with DU-145, > 100 µM (inactive); in the experiment on HCT-15, > 100 µM; in the experiment on COLO 205, > 100 µM (inactive). The GI50 in the experiment on CAKI-1 was 96.4 µM (inactive).

`CCCCCCCCCCCCCC(=O)OCC1OC(=O)C(O)C1O` (stereo unspecified): the GI50 in the experiment on UACC-62, in the experiment on NCI-H23, in the experiment with UO-31, with SN12C, in the experiment with IGROV-1 and in the experiment on HT-29 was > 100 µM (inactive) each time. The GI50 in the experiment with OVCAR-4, in the experiment on SF-539, in the experiment with MOLT-4, with KM-20L2, in the experiment on COLO 205 and with CAKI-1 was > 100 µM (inactive) each time.
